Data as given in patent US10647699B2, “Substituted 2-oxyimidazolylcarboxamides as pesticides” (Bayer CropScience Aktiengesellschaft, priority 2016, dated 2020).
Like-named read-outs stand apart in the source and are kept apart here.

Tests used:
[1] = tested on: Myzus persicae; assay: Myzus persicae spray test (MYZUPE), Chinese cabbage leaf discs; type: in vivo; conditions: for pest or weed control at 500 g/ha / Emax at 100 g/ha: Myzus persicae, foliar; for pest or weed control at 500 g/ha: read-out: efficacy; for Emax at 100 g/ha: read-out: % efficacy
Experimental: Myzus persicae—Spray Test
(§1) To produce a suitable preparation of active compound, 1 part by weight of active compound is dissolved using the specified parts by weight of solvent and made up with water containing an emulsifier concentration of 1000 ppm until the desired concentration is attained. To produce further test concentrations, the formulation is diluted with emulsifier-containing water.
Discs of Chinese cabbage leaves (Brassica pekinensis) infested by all stages of the green peach aphid (Myzus persicae) are sprayed with an active compound formulation of the desired concentration.
After 5 or 6 days, the efficacy in % is determined. 100% means that all the aphids have been killed; 0% means that no aphids have been killed.
Myzus persicae—Spray Test (MYZUPE)
Discs of Chinese cabbage leaves (Brassica pekinensis) infested by all stages of the green peach aphid (Myzus persicae) are sprayed with an active compound preparation of the desired concentration.
After the desired period of time, the efficacy in % is determined. 100% means that all the aphids have been killed; 0% means that no aphids have been killed.

[2] = tested on: Myzus persicae; assay: Myzus persicae oral test (MYZUPE O); type: in vivo; conditions: for Emax at 0.8 ppm / Emax at 4 ppm / pest or weed control at 20 ppm: Myzus persicae, po, 120 h; for Emax at 0.8 ppm / Emax at 4 ppm: read-out: % efficacy; for pest or weed control at 20 ppm: read-out: efficacy
Experimental: Solvent: 100 parts by weight of acetone
To produce a suitable preparation of active compound, 1 part by weight of active compound is dissolved using the specified parts by weight of solvent and made up with water until the desired concentration is attained.
50 μl of the active compound preparation are transferred into microtitre plates and made up to a final volume of 200 μl with 150 μl of IPL41 insect medium (33%+15% sugar). Subsequently, the plates are sealed with parafilm, which a mixed population of green peach aphids (Myzus persicae) within a second microtitre plate is able to puncture and imbibe the solution through it.
After 5 days, the efficacy in % is determined. 100% means that all the aphids have been killed; 0% means that no aphids have been killed.
Myzus persicae—Oral Test (MYZUPE O)
After 5 or 6 days (dat), the efficacy in % is determined. 100% means that all the aphids have been killed; 0% means that no aphids have been killed.

[3] = tested on: Aphis gossypii; assay: Aphis gossypii spray test on cotton plants; type: in vivo; conditions: for pest or weed control at 20 ppm: Aphis gossypii, 144 h, read-out: efficacy (kill)
Experimental: Aphis gossypii—Spray Test
Solvent: 14 parts by weight of dimethylformamide
Emulsifier: alkylaryl polyglycol ether
as §1, with “water. If the addition of ammonium salts or/and penetrants is required, these are each added in a concentration of 1000 ppm to the formulation solution.” for “water.”
Cotton plants (Gossypium hirsutum) which are heavily infested by the cotton aphid (Aphis gossypii) are sprayed with an active compound formulation of the desired concentration.
After 6 days, the kill in % is determined. 100% means that all the aphids have been killed; 0% means that no aphids have been killed.

[4] = log P by HPLC on reversed-phase columns (OECD Guideline 117), neutral range; type: physicochemical; conditions: for chromatographic logP: reversed-phase (C18) HPLC column
[5] = after 5 days, application rate 500 g/ha
[6] = after 5 days, application rate 20 ppm
[7] = after 6 days, application rate 20 ppm, cotton plants
[8] = after 6 days, application rate 500 g/ha
[9] = 120 h, after 5 days, application rate 500 g/ha
[10] = 144 h, MYZUPE, 100 g of ai/ha, 6 dat
[11] = HPLC, neutral range pH 7.8, read-out: LogP-neutral
[12] = 120 h, MYZUPE, 100 g of ai/ha, 5 dat

LogP-neutral ([4]; pH 7.8) | SMILES | efficacy [1, 5] | efficacy [2, 6] | efficacy (kill) [3, 7] | also measured
 | CN(C(=O)c1cnc(Oc2ccc(C#N)nc2)n1C)c1cccnc1 [Example II-58] | 90% | 100% | 100% | LogP-neutral ([4]; HPLC, neutral range pH 7.8): 1.1
 | CN(C(=O)c1cnc(OCCCF)n1C)c1cccnc1 [Example II-33] | 90% | 100% | 100% | LogP-neutral ([4]; HPLC, neutral range pH 7.8): 1.26
1.86 | CN(C(=O)c1cnc(Oc2ccc(F)cc2F)n1C)c1cccnc1 [Example II-17] |  | 100% | 100% | efficacy [1, 8]: 100%
 | COc1ncc(C(=O)N(C)c2cccnc2)n1C [Example II-12] |  |  |  | pest or weed control at 500 g/ha [1, 9]: 100%; Emax at 100 g/ha [1, 10]: 90%; Emax at 0.8 ppm ([2]; MYZUPE O, 0.8 ppm, 5 dat): 100%; Emax at 4 ppm ([2]; MYZUPE O, 4 ppm, 5 dat): 100%; pest or weed control at 20 ppm [2, 6]: 100%; pest or weed control at 20 ppm [3, 7]: 100%; chromatographic logP [4, 11]: 0.9
2.01 | CN(C(=O)c1cnc(Oc2cc(F)cc(F)c2)n1C)c1cccnc1 [Example II-25] | 90% | 100% | 90% | 
 | CCN(C(=O)c1cnc(Oc2ccc(Cl)nc2)n1C)c1cccnc1 [Example II-36] | 90% | 100% | 100% | LogP-neutral ([4]; HPLC, neutral range pH 7.8): 1.79
 | CN(C(=O)c1cnc(Oc2cccc(Cl)c2)n1C)c1cccnc1 [Example II-2] |  |  |  | Emax at 100 g/ha ([1]; 144 h): 100%; pest or weed control at 500 g/ha ([1]; 144 h): 100%; Emax at 4 ppm [2]: 100%; pest or weed control at 20 ppm [2]: 100%; pest or weed control at 20 ppm [3]: 100%; chromatographic logP ([4]; pH 7.8, HPLC-MS, neutral, read-out: log P[n]): 2.1
1.97 | CN(C(=O)c1cnc(OCCSCC(F)(F)F)n1C)c1cccnc1 [Example II-30] | 100% | 100% | 100% | % efficacy ([1]; MYZUPE, 100 g of ai/ha, 5 dat): 90%; % efficacy ([2]; MYZUPE O, 0.8 ppm, 5 dat): 100%; % efficacy ([2]; MYZUPE O, 4 ppm, 5 dat): 100%
 | CN(C(=O)c1cnc(OCCCC#N)n1C)c1cccnc1 [Example II-38] | 90% | 100% | 98% | LogP-neutral ([4]; HPLC, neutral range pH 7.8): 1.08
 | CCN(C(=O)c1cnc(OCCCC#N)n1C)c1cccnc1 [Example II-47] | 90% | 100% | 100% | LogP-neutral ([4]; HPLC, neutral range pH 7.8): 1.33
 | CN(C(=O)c1cnc(OC2CCSCC2)n1C)c1cccnc1 [Example II-31] |  |  |  | Emax at 100 g/ha [1, 12]: 90%; pest or weed control at 500 g/ha [1, 9]: 100%; Emax at 0.8 ppm ([2]; MYZUPE O, 0.8 ppm, 5 dat): 70%; Emax at 4 ppm ([2]; MYZUPE O, 4 ppm, 5 dat): 100%; pest or weed control at 20 ppm [2, 6]: 100%; pest or weed control at 20 ppm [3, 7]: 98%; chromatographic logP [4, 11]: 1.63
 | CN(C(=O)c1cnc(Oc2ccc(Cl)cc2)n1C)c1cccnc1 [Example II-9] |  | 100% | 100% | efficacy [1, 8]: 90%; LogP-neutral ([4]; HPLC, neutral range pH 7.8): 2.09
 | CN(C(=O)c1cnc(OC2CCOC2)n1C)c1cccnc1 (stereo not shown) [Example II-35] | 90% | 100% | 100% | LogP-neutral ([4]; HPLC, neutral range pH 7.8): 1
1.57 | CN(C(=O)c1cnc(Oc2cncc(Cl)c2)n1C)c1cccnc1 [Example II-41] | 100% | 100% | 100% | 
1.3 | CN(C(=O)c1cnc(Oc2cncc(F)c2)n1C)c1cccnc1 [Example II-42] | 90% | 100% | 100% | 
 | CN(C(=O)c1cnc(Oc2ccc(Cl)nc2)n1C)c1cccnc1 [Example II-15] |  |  |  | Emax at 100 g/ha [1, 10]: 100%; pest or weed control at 500 g/ha ([1]; 144 h, after 6 days, application rate 500 g/ha): 100%; Emax at 0.8 ppm ([2]; MYZUPE O, 0.8 ppm, 5 dat): 100%; pest or weed control at 20 ppm [2, 6]: 100%; pest or weed control at 20 ppm [3, 7]: 100%; chromatographic logP [4, 11]: 1.53
 | CN(C(=O)c1cnc(Oc2cccc(C(F)(F)F)c2)n1C)c1cccnc1 [Example II-29] |  |  |  | Emax at 100 g/ha [1, 12]: 90%; pest or weed control at 500 g/ha [1, 9]: 100%; Emax at 0.8 ppm ([2]; MYZUPE O, 0.8 ppm, 5 dat): 100%; Emax at 4 ppm ([2]; MYZUPE O, 4 ppm, 5 dat): 100%; pest or weed control at 20 ppm [2, 6]: 100%; pest or weed control at 20 ppm [3, 7]: 100%; chromatographic logP [4, 11]: 2.37
1.18 | CN(C(=O)c1cnc(OC2CCOCC2)n1C)c1cccnc1 [Example II-32] | 90% | 100% | 100% | 
 | Cn1c(C(=O)N(c2cccnc2)C2CC2)cnc1Oc1cncc(C(F)(F)F)c1 [Example II-91] |  |  |  | Emax at 100 g/ha [1, 12]: 90%; pest or weed control at 500 g/ha [1, 9]: 90%; Emax at 0.8 ppm ([2]; MYZUPE O, 0.8 ppm, 5 dat): 70%; Emax at 4 ppm ([2]; MYZUPE O, 4 ppm, 5 dat): 90%; pest or weed control at 20 ppm [2, 6]: 100%; chromatographic logP [4, 11]: 2.1
1.78 | Cc1cc(Oc2ncc(C(=O)N(C)c3cccnc3)n2C)cnc1Cl [Example II-57] | 90% | 100% |  | 
1.86 | CN(C(=O)c1cnc(Oc2ccc(Oc3ccc(F)nc3)nc2)n1C)c1cccnc1 [Example II-49] | 90% | 100% |  | 
2.1 | CCOc1cccc(Oc2ncc(C(=O)N(C)c3cccnc3)n2C)c1 [Example II-73] | 90% | 100% |  | 
 | CN(C(=O)c1cnc(Oc2cnc3ccccc3c2)n1C)c1cccnc1 [Example II-63] |  |  |  | Emax at 100 g/ha [1, 12]: 90%; pest or weed control at 500 g/ha [1, 9]: 90%; Emax at 0.8 ppm ([2]; MYZUPE O, 0.8 ppm, 5 dat): 90%; Emax at 4 ppm ([2]; MYZUPE O, 4 ppm, 5 dat): 100%; pest or weed control at 20 ppm [2, 6]: 100%; chromatographic logP [4, 11]: 1.72
2.15 | CN(C(=O)c1cnc(OC2CCCCC2)n1C)c1cccnc1 [Example II-22] |  | 90% |  | efficacy [1, 8]: 90%
2.3 | CN(C(=O)c1cnc(Oc2ccc(Oc3ccc(Oc4ccc(F)nc4)nc3)nc2)n1C)c1cccnc1 [Example II-50] | 90% | 100% |  | 

SMILES | LogP-neutral ([4]; pH 7.8) | efficacy [1, 5] | efficacy [2, 6] | efficacy (kill) [3, 7] | also measured
COCCCOc1ncc(C(=O)N(C)c2cccnc2)n1C [Example II-7] | 1.27 |  | 100% | 100% | efficacy [1, 8]: 100%
CC(C)Oc1ncc(C(=O)N(C)c2ccc[n+]([O-])c2)n1C [Example II-4] | 1.03 | 90% | 100% | 100% | 
CN(C(=O)c1cnc(OCc2cccnc2)n1C)c1cccnc1 [Example II-8] | 1.16 |  | 100% | 99% | efficacy [1, 8]: 90%
CCOc1ncc(C(=O)N(C)c2cccnc2)n1C [Example II-10] | 1.19 |  | 100% | 100% | efficacy [1, 8]: 100%
CC(C)Oc1ncc(C(=S)N(C)c2cccnc2)n1C [Example II-3] | 1.99 | 90% | 100% | 100% | 
CCCOc1ncc(C(=O)N(C)c2cccnc2)n1C [Example II-5] | 1.52 |  | 90% | 100% | efficacy [1, 8]: 90%
Cc1cncc(Oc2ncc(C(=O)N(C)c3cccnc3)n2C)c1 [Example II-54] | 1.31 | 90% | 100% |  | 
CCCc1cccc(Oc2ncc(C(=O)N(C)c3cccnc3)n2C)c1 [Example II-77] | 2.66 | 100% | 90% |  | 
